This passage reports IC50 results from ChEMBL document CHEMBL4834472 (J Med Chem, 2021).

In one test the test system is K562. As to the kind of experiment: cells. To be noted: Homo sapiens, K562, 72 h.
The target of test [1] is Receptor-type tyrosine-protein kinase FLT3 (Homo sapiens, UniProt P36888, ITD).
For the next test, the system named is MV4-11. As to the kind of experiment: cells. To be noted: Homo sapiens, MV4-11, 72 h.
The next test concerns the target CDK2/Cyclin A1 (Homo sapiens, UniProt P24941). It is filed as protein-complex assay.

The structures appear in SMILES notation.

Receptor-type tyrosine-protein kinase FLT3, sequence (P36888 whole entry, looked up, change not shown): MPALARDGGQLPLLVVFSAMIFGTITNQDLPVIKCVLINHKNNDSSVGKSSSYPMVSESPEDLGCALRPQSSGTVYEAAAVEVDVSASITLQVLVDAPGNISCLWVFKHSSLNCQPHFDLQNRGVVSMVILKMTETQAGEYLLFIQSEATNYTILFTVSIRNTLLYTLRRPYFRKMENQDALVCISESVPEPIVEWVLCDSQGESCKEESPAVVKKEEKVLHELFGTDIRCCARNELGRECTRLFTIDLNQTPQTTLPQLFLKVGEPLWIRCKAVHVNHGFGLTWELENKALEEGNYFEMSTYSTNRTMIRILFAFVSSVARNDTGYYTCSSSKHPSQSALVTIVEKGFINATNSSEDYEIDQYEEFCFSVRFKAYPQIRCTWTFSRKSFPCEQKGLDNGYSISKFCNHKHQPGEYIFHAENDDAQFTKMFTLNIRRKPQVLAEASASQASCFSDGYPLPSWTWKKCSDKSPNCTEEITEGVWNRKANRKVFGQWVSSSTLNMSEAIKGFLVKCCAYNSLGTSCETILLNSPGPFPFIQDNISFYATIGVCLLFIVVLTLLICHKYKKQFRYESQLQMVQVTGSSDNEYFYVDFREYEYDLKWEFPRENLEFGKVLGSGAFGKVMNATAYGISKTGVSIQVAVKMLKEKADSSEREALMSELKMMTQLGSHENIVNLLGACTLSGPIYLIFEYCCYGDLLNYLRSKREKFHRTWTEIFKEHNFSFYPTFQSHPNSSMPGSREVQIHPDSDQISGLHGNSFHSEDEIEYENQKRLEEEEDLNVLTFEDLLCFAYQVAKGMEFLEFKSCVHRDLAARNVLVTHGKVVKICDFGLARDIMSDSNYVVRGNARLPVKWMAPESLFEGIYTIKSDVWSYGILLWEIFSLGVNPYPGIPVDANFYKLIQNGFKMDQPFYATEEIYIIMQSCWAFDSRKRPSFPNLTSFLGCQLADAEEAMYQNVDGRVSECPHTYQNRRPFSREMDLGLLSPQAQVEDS
Description for CDK2/Cyclin A1: Inhibition of CDK2/Cyclin A1 (unknown origin) at 1 uM using histone H1 as substrate preincubated for 20 mins followed by 33P-ATP addition and measured after 2 hrs by filter binding method
Description for K562: Antiproliferative activity against human K562 cells assessed as cell death measured after 72 hrs by resazurin dye based assay
Description for MV4-11: Antiproliferative activity against human MV4-11 cells assessed as cell death measured after 72 hrs by resazurin dye based assay

As to `Cn1ncc2c3c4c(c(-c5c[nH]nc5C(F)(F)F)nc3ccc21)CCCC4`, the concentration for half-maximal inhibition (IC50) was found to be 44.6 µM in the test with K562, 1.69 µM in test [1], 2.42 µM in the test on MV4-11 and 3.26 µM against CDK2/Cyclin A1.

For the compound `FC(F)(F)c1n[nH]cc1-c1nc2ccc3[nH]ncc3c2c2c1CCCCC2`, the IC50 with K562 was determined as 25.1 µM; in test [1], 0.003 µM; in the test with MV4-11 it was 0.076 µM; against CDK2/Cyclin A1, 0.031 µM.

Turning to `CCc1cnn2c(NCc3ccc[n+]([O-])c3)cc(N3CCCC[C@H]3CCO)nc12` [DINACICLIB], the IC50 in the test with K562 is 0.013 µM; in test [1] it was over 2 µM; in the test on MV4-11 it was 0.007 µM.

With `OC1CCc2c(c(-c3c[nH]nc3C(F)(F)F)nc3ccc4[nH]ncc4c23)C1` (configuration not stated), the IC50 in the test with K562 amounted to 22.5 µM; in test [1], 0.016 µM; in the test on MV4-11, 0.032 µM; at CDK2/Cyclin A1 it was 0.02 µM.

Consider `FC(F)(F)c1n[nH]cc1-c1cc(C2CC2)c2c(ccc3[nH]ncc32)n1`, for which the IC50 worked out at 78.9 µM in the test with K562, 0.368 µM in test [1], 0.98 µM in the test on MV4-11 and 0.087 µM against CDK2/Cyclin A1.

Consider `CCOC(=O)C1CCc2c(c(-c3c[nH]nc3C(F)(F)F)nc3ccc4[nH]ncc4c23)C1` (configuration not stated), for which the IC50 in the test on K562 turned out to be 6.7 µM; in test [1], 0.118 µM; in the test on MV4-11 it was 0.037 µM; at CDK2/Cyclin A1, 0.111 µM.

Turning to `FC(F)(F)c1n[nH]cc1-c1nc2ccc3[nH]nc(Br)c3c2c2c1CCCC2`, the 50% inhibitory concentration (IC50) turned out to be 28.9 µM with K562, 0.003 µM in test [1], 0.544 µM with MV4-11 and 0.325 µM against CDK2/Cyclin A1.

On to `FC(F)(F)c1n[nH]cc1-c1nc2c(C(F)(F)F)cc3[nH]ncc3c2c2c1CCCC2`, for which the half-maximal inhibitory concentration (IC50) with K562 stood at 11.1 µM; in test [1], 0.107 µM; in the test on MV4-11, 0.18 µM; at CDK2/Cyclin A1 it was 0.107 µM.

As to `c1n[nH]cc1-c1nc2ccc3[nH]ncc3c2c2c1CCCC2`, the IC50 in the test on K562 worked out at 3.93 µM; in test [1], 0.09 µM; in the test on MV4-11 it was 0.33 µM; against CDK2/Cyclin A1 it was 0.072 µM.

For the compound `N#CC1CCc2c(c(-c3c[nH]nc3C(F)(F)F)nc3c(F)cc4[nH]ncc4c23)C1` (configuration not stated), the IC50 came out at 8.81 µM in the test on K562, 0.086 µM in test [1], 0.123 µM in the test with MV4-11 and 0.111 µM on CDK2/Cyclin A1.

Take `CN1CCN(C2CCc3c(c(-c4c[nH]nc4C(F)(F)F)nc4ccc5[nH]ncc5c34)C2)CC1` (configuration not stated): the half-maximal inhibitory concentration (IC50) in the test on K562 was 19.1 µM; in test [1] it was 0.141 µM; in the test with MV4-11, 0.44 µM; at CDK2/Cyclin A1, 0.266 µM.

As for `c1[nH]nnc1-c1nc2ccc3[nH]ncc3c2c2c1CCCC2`, the IC50 in the test on K562 worked out at 9.8 µM; in test [1], 0.132 µM; in the test with MV4-11 it was 0.6 µM; at CDK2/Cyclin A1, 0.18 µM.

With `FC(F)(F)c1n[nH]cc1-c1nc2ccc3[nH]ncc3c2c2c1CC(C(F)(F)F)CC2` (configuration not stated), the IC50 with K562 was 8.1 µM; in test [1] it was 0.126 µM; in the test on MV4-11, 0.014 µM; at CDK2/Cyclin A1 it was 0.139 µM.

For the compound `Cn1cc(-c2nc3ccc4[nH]ncc4c3c3c2CCCC3)c(C2CC2)n1`, the IC50 amounted to 33.8 µM with K562, 3.66 µM in test [1], 1.3 µM in the test with MV4-11 and 1.13 µM at CDK2/Cyclin A1.

Consider `Cc1n[nH]cc1-c1nc2c(F)cc3[nH]ncc3c2c2c1CCCC2`, for which the IC50 was determined as 3.77 µM with K562, 0.007 µM in test [1], 0.113 µM in the test on MV4-11 and 0.017 µM at CDK2/Cyclin A1.

Turning to `FC(F)(F)c1n[nH]cc1-c1nc2ccc3[nH]nc(Cl)c3c2c2c1CCCC2`, the IC50 with K562 is over 100 µM; in test [1], 0.041 µM; with MV4-11, 2.49 µM; on CDK2/Cyclin A1 it was 2.32 µM.

Consider `CN1CCN(CC#Cc2n[nH]c3ccc4nc(-c5c[nH]nc5C(F)(F)F)c5c(c4c23)CCCC5)CC1`, for which the IC50 in the test on K562 was 24.8 µM; in test [1], 0.018 µM; in the test on MV4-11, 0.459 µM; at CDK2/Cyclin A1, 10 µM.

For `Cc1n[nH]cc1-c1nc2ccc3[nH]nc(C)c3c2c2c1CCCC2`, the IC50 in the test with K562 is 21.1 µM; in test [1], 0.042 µM; in the test on MV4-11, 0.687 µM; against CDK2/Cyclin A1, 0.717 µM.

With `Cc1n[nH]c2ccc3nc(-c4c[nH]nc4C(F)(F)F)c4c(c3c12)CCC(N)C4` (configuration not stated), the concentration for half-maximal inhibition (IC50) with K562 turned out to be 53.8 µM; in test [1], 0.211 µM; in the test on MV4-11, 0.319 µM; on CDK2/Cyclin A1 it was 0.64 µM.

Regarding `NC1CCc2c(c(-c3c[nH]nc3C(F)(F)F)nc3ccc4[nH]ncc4c23)C1` (configuration not stated), the IC50 came to 66.6 µM with K562, 3.14 µM in test [1], 3.5 µM in the test with MV4-11 and 5.97 µM against CDK2/Cyclin A1.

With `FC(F)(F)c1n[nH]cc1-c1nc2c(N3CCCCC3)cc3[nH]ncc3c2c2c1CCCC2`, the IC50 in the test with K562 was 20.3 µM; in test [1], 1.25 µM; in the test with MV4-11, 2.39 µM; on CDK2/Cyclin A1, 5.74 µM.

Consider `FC(F)(F)c1n[nH]cc1-c1nc2ccc3[nH]ncc3c2c2c1COCC2`, for which the IC50 turned out to be 9.25 µM with K562, 0.109 µM in test [1], 0.092 µM in the test with MV4-11 and 0.19 µM on CDK2/Cyclin A1.

As to `Cc1n[nH]c(C)c1-c1nc2ccc3[nH]ncc3c2c2c1CCCC2`, the IC50 in the test on K562 was found to be 8.73 µM; in test [1], 0.194 µM; in the test with MV4-11, 0.514 µM; against CDK2/Cyclin A1 it was 0.107 µM.

As for `Fc1n[nH]c2ccc3nc(-c4c[nH]nc4C(F)(F)F)c4c(c3c12)CCCC4`, the IC50 was 31.2 µM in the test on K562, 0.031 µM in test [1], 0.66 µM in the test with MV4-11 and 0.272 µM at CDK2/Cyclin A1.

As to `NCC1CCc2c(c(-c3c[nH]nc3C(F)(F)F)nc3c(F)cc4[nH]ncc4c23)C1` (configuration not stated), the 50% inhibitory concentration (IC50) amounted to 16 µM with K562, 0.019 µM in test [1], 0.74 µM in the test on MV4-11 and 0.058 µM on CDK2/Cyclin A1.

Consider `FC(F)(F)c1n[nH]cc1-c1nc2ccc3[nH]nc(Cl)c3c2c2c1CCCCC2`, for which the IC50 in the test on K562 was over 100 µM; in test [1], 0.034 µM; in the test with MV4-11 it was 2.01 µM; against CDK2/Cyclin A1, 1.72 µM.

For the compound `N#Cc1n[nH]c2ccc3nc(-c4c[nH]nc4C(F)(F)F)c4c(c3c12)CCCC4`, the IC50 in the test with K562 is over 100 µM; in test [1], over 20 µM; in the test on MV4-11 it was over 100 µM; on CDK2/Cyclin A1 it was over 20 µM.

For `CC(C)c1n[nH]cc1-c1nc2ccc3[nH]ncc3c2c2c1CCCC2`, the 50% inhibitory concentration (IC50) came out at 11.1 µM with K562, 0.212 µM in test [1], 0.61 µM in the test with MV4-11 and 0.088 µM against CDK2/Cyclin A1.

`Cc1n[nH]c2ccc3nc(-c4c[nH]nc4C(F)(F)F)c4c(c3c12)CCC(C#N)C4` (configuration not stated): the half-inhibitory concentration (IC50) came out at 9.94 µM in the test on K562, 0.015 µM in test [1], 0.012 µM in the test with MV4-11 and 0.333 µM at CDK2/Cyclin A1.

For `FC(F)(F)c1n[nH]cc1-c1cc(-c2ccncc2)c2c(ccc3[nH]ncc32)n1`, the 50% inhibitory concentration (IC50) in the test with K562 amounted to 76.8 µM; in test [1], 2.99 µM; in the test on MV4-11, 3.62 µM; against CDK2/Cyclin A1 it was 0.823 µM.

For `Fc1cc(F)cc(-c2cc(-c3c[nH]nc3C(F)(F)F)nc3ccc4[nH]ncc4c23)c1`, the IC50 in the test on K562 is over 100 µM; in test [1], over 20 µM; in the test on MV4-11, 52.5 µM; against CDK2/Cyclin A1, 0.469 µM.

Turning to `Fc1ccc(-c2cc(-c3c[nH]nc3C(F)(F)F)nc3ccc4[nH]ncc4c23)cc1Cl`, the IC50 is 65.9 µM in the test with K562, over 20 µM in test [1], 25.7 µM in the test with MV4-11 and 1.27 µM on CDK2/Cyclin A1.
